Test results from paper PMC11063903, “Engineering a human P2X2 receptor with altered ligand selectivity in yeast” (The Journal of Biological Chemistry, 2024).

Tests used:
[1] = test system: Crz1p nuclear localization (calcineurin pathway) in WT-P2X2 strain; test: GFP-Crz1p nuclear localization in P2X2 yeast after ATP injection; type: cell-based, S. cerevisiae; settings: five minutes after ATP injection, 200 μM ATP (f.c.)
Description: As further validation of P2X2 function in yeast, we sought to investigate whether P2X2 could trigger the calcineurin pathway, which is a native pathway controlled by calcium. After intracellular calcium levels rise, calcineurin regulates the nuclear localization of transcription factor Crz1p ([27]). To test if unnatural ion channels could activate this pathway, a GFP-tagged Crz1p was co-expressed with P2X2 in yeast. […] The degree of nuclear localization was double that of a negative control mutant P2X receptor.
Yeast strains EG.y156 WT-P2X2 or EG.y66 broken-P2X2 were transformed with EG.B723 GFP-tagged Crz1p. Yeast were cultured and induced as previously described. Cells were loaded onto a cell imaging microplate (Eppendorf, cat. no. 0030741030) that was pre-treated with Poly-D-lysine (50 μg/ml). Cells (50 μl) were attached to the plate for 30 min at room temperature, and wells were then gently washed three times with media to remove non-adherent cells. Cells were resuspended in 100 μl and imaged on a Cytation 5 Cell Imaging Multi-Mode reader. Cells were imaged before injection with the appropriate substrate, immediately after injection, and 5 or 10 min after injection. […] Nuclear localization events were automatically counted in Ilastik (https://www.ilastik.org/). Percent nuclear localization was counted as nuclear localization events divided by total cells.

human P2X2 receptor = target: T1, human P2X2 receptor (Homo sapiens, UniProt Q9UBL9); test: GCaMP calcium assay of P2X2 expressed in yeast S. cerevisiae, agonist response; type: cell-based
T1 construct: expressed in transfected cells; host or cells: S. cerevisiae BY4741 background, P2X2 genome-integrated under a galactose-inducible promoter
T1 sequence (Q9UBL9 1-471): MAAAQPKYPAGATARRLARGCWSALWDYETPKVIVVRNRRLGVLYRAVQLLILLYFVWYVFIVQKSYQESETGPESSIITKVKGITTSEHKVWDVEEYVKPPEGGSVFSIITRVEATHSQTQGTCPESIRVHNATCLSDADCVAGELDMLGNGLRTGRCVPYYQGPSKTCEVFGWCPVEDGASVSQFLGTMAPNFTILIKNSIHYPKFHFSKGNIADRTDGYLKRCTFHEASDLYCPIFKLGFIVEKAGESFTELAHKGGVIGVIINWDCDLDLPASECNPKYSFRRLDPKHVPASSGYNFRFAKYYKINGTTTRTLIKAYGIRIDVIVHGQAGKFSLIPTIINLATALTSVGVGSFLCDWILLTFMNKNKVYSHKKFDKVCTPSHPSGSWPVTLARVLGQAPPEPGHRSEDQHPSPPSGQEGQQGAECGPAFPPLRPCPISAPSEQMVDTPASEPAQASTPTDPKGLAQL
Description: Although P2X receptors are expressed in many eukaryotic organisms including some fungi ([24]), they are not present in S. cerevisiae. For recombinant expression to yield functional P2X channels, receptor proteins must be correctly folded, assembled into trimers, and efficiently trafficked to the plasma membrane. To assess whether P2X ion channels could functionally gate in S. cerevisiae the canonical isoforms of P2X1-7 were co-expressed with aequorin, a calcium-activated photoprotein from the jellyfish Aequorea victoria.
Genetic knockouts of the calnexin homolog (ΔCne1p) and vacuolar calcium transporter (Δ Vcx1p) (n = 3) were compared to the WT yeast strain (n = 2). […] Statistical analysis was performed using one-way ANOVA with Dunnett’s multiple comparisons test where ∗∗ is p ≤ 0.01. […] Yeast were injected with ATP at 21 s and onset rates from the last six points (40–48 s) were used for calculating the dose response in (D). E and F, kinetic and dose–response measurements of P2X2 with the GCaMP reporter with ATP (n = 4), partial agonist BzATP (n = 3), and agonist 2-chloro-ATP (n = 4). Figures (D and F) share the figure legend with (C). […] Suramin was pre-equilibrated with P2X2-yeast for 10 min and 5 μM ATP was injected.
To expand the assay throughput to accommodate several 96-well plates at a time, we required the acquisition of short-duration signals. Since GCaMP signals are typically measured in terms of ΔF/F0, where ΔF is Fmax-Fmin, and since the signal takes several minutes to reach Fmax, we instead attempted to correlate the rate of signal onset (rather than its amplitude) with channel activity.
Having optimized our yeast strains and assay throughput, we sought to further validate the function of human P2X2 in the yeast host.
GCaMP assays were performed as follows. P2X2 GCaMP strains were designed with a bi-cistronic reporter, in which the GCaMP protein was followed by a 2A peptide and a mScarletI reporter ([53]). The co-translated mScarletI was designed to act as a control for plasmid loss, GCaMP breakage via nonsense mutation, and contamination. […] P2X2-GCaMP strains were cultured and induced as previously described. Samples were induced for 24 h to allow for the accumulation of the mature GCaMP protein. Cells were washed three times in 0.1 M MES/Tris buffer and resuspended with MES/Tris with supplemental calcium. Cells were loaded onto a black, clear bottom microplate and imaged on a FlexStation3 plate reader. Samples were imaged in “flex” mode. Samples were imaged for 48 s at an interval of 1.6 s. Fluorescence was measured with an excitation at 485 nm, and emission 525 nm. At the 21 s mark, 100 μl ligand solution was transferred to the cells. For strains with mScarlet, fluorescence was read with excitation 570 nm/emission 610 nm. Slopes were calculated from the last 6 points of measurement and were normalized to the positive control samples. Any replicate in which the mScarlet value was measured to be over 2 standard deviations less than the mean for that set was discarded from further analysis.

P2X2 = test system: P2X2; design: method as in PMID 10570044; settings: human glia; read-out: EC50, previously published value; cited from earlier work

## Nc1ncnc2c1ncn2[C@@H]1O[C@H](COP(=O)(O)OP(=O)(O)OP(=O)(O)O)[C@@H](O)[C@H]1O [ATP]
[1]
  degree of Crz1p nuclear localization relative to negative control mutant P2X receptor: double
Human P2X2 receptor; GCaMP strain, saturating (500 μM) ATP, vs K81C K83C P2X2
  maximum fluorescence compared to a negative control receptor: 12 fold
Human P2X2 receptor; rapid GCaMP assay format, yeast, Fig. 1D
  pEC50 (signaling onset rate ΔF/ΔT): 5.88 ± 0.056
Human P2X2 receptor; rapid GCaMP assay format, yeast, Fig. 1D, read-out: EC50 (signaling onset rate ΔF/ΔT)
  EC50: 1.3 µM
P2X2
  EC50: 6 µM
